The target in assay [1] is human Bub1 (Homo sapiens (Human), UniProt O43683). The assay is described as follows: Bub1 high ATP kinase assay (TR-FRET). The assay is classed as biochemical. Particulars: read-out: Bub1 high ATP (2 mM) IC50; 2 mM ATP. An excerpt: Bub1-inhibitory activity of compounds of the present invention at a high ATP concentration was quantified employing the Bub1 TR-FRET high ATP kinase assay as described in the following paragraphs.
N-terminally His6-tagged recombinant catalytic domain of human Bub1 (amino acids 704-1085), expressed in insect cells (Hi5) and purified by Ni-NTA affinity chromatography and subsequent size exclusion chromatography, was used as enzyme.
A general note: TR-FRET usually uses a lanthanide donor and a delayed reading to cut background.

Assay [2] deals with Ba/F3-EGFR-WT. The assay is described as follows: Ba/F3 cell survival assay, WT EGFR. Type of assay: cell-based.
Assay [3] relates to Ba/F3-EGFR-V769_D770insASV. The assay is described as follows: Ba/F3 cell survival assay, EGFR V769_D770insASV. The assay is classed as cell-based. Particulars: 48 h, read-out: BA/F3 (ASV) IC50. Here is the method: (§1) 293T cells from ATCC were transfected with pBABEpuro expression constructs for mutant EGFR (V769_D770insASV, D770_N771insNPG, N771_P772insH, H773_V774insNPH, E746_A750del, L858R, D770_N771 insSVD C797S, E746_A750del C797S, L858R C797S, L861Q) or mutant ERBB2 (A775_G776insYVMA) and pCL-Eco packaging vector using Fugene-6 transfection reagent from Promega. Plates were incubated at 37° C. for 48 h. Retrovirus was harvested by filtering the media supernatant through a 0.45 μm filter.
(§2) Ba/F3 cells purchased from DSMZ were grown in RPMI+10% FBS+10 ng/mL IL-3 and infected with filtered retroviral supernatant at a 1:2 dilution. Polybrene was added to a concentration of 8 μg/mL, plates were spun for 90 min, and incubated overnight at 37° C. 2 μg/mL puromycin was added to the infected cells 24 h after infection and cells were continually grown in the presence of puromycin and 10 ng/mL IL-3. Following stably expressing Ba/F3 cell lines were generated: Ba/F3-EGFR-V769_D770insASV, Ba/F3-EGFR-D770_N771insNPG, Ba/F3-EGFR-N771_P772insH, Ba/F3-EG, Ba/F3-EGFR-H773_V774insNPH, Ba/F3-EGFR-E746_A750del, Ba/F3-EGFR-L858R, Ba/F3-EGFR-D770_N771 insSVD C797S, Ba/F3-EGFR-E746_A750del C797S, Ba/F3-EGFR-L858R C797S, Ba/F3-EGFR L861Q and Ba/F3-ERBB2-A775_G776insYVMA (Ba/F3—vector-control).
(§3) For cell survival assays, Ba/F3 cells were grown to a density of 1-2 million cells per mL, spun down and resuspended in media without IL-3, and replated at a concentration 200,000-500,000 cells per mL. The cells ectopically expressing WT EGFR plated with 10 ng/mL Millipore Culture grade EGF and Ba/F3 cells containing mutant EGFR or Mutant ERBB2 were cultivated without EGF. The cells ectopically expressing pBABEpuro empty vector were plated with 10 ng/mL IL-3.
(§4) 2 days later, cells were plated in 50 μL in a 384 well plate at a concentration of 4000 cells per well for cells assayed in the absence of IL-3 and 2000 cells per well for cells assayed in the presence of IL-3. 100 nL of compound was added to each well using a 100 nL pin head, and plates were incubated at 37° C. for 48 h.
(§5) Cell viability was measured by adding 20 μL of Cell Titer-Glo Luminescent Cell Viability Reagent diluted 1:3 in PBS. Plates were sealed with Perkin Elmer Top-Seal, inverted several times to mix, and immediately centrifuged at 1000 rpm for 2 min. Plates were incubated in low light conditions for 8-10 min and luminescence was measured.

Assay [4] deals with Ba/F3-EGFR-N771_P772insH. The assay is described as follows: Ba/F3 cell survival assay, EGFR N771_P772insH. Type of assay: cell-based. Particulars: 48 h, read-out: BA/F3 (EGFR N771— P772insH) IC50. The procedure: as §1, §2, §3, §4, §5
Assay [5] has as its system Ba/F3-EGFR-H773_V774insNPH. The assay is described as follows: Ba/F3 cell survival assay, EGFR H773_V774insNPH. The assay is classed as cell-based. To be noted: Ba/F3 EGFR-H773-V774ins_NPH, 48 h, read-out: BA/F3 (EGFR H773— V774insNPH) IC50. The procedure:
as §1, §2, §3, §4, §5

Assay [6] has as its system Ba/F3-EGFR-E746_A750del. The assay is described as follows: Ba/F3 cell survival assay, EGFR E746_A750del. To be noted: 48 h, read-out: BA/F3 (EGFR E746_A750del) IC50. The assay is classed as cell-based. The procedure:
as §1, §2, §3, §4, §5

In assay [7] the test system is Ba/F3-EGFR L861Q. Kind of assay: Ba/F3 cell survival assay, EGFR L861Q. The assay is classed as cell-based. Particulars: 48 h, read-out: BA/F3 (EGFR L861Q) IC50. Here is the method:
as §1, §2, §3, §4, §5

The test system of assay [8] is Ba/F3-EGFR-E746_A750del C797S. The assay is described as follows: Ba/F3 cell survival assay, EGFR E746_A750del C797S. Type of assay: cell-based. Particulars: 48 h, read-out: BA/F3 (EGFR E746_A750del C797S) IC50. Here is the method: as §1, §2, §3, §4, §5
The subject of assay [9] is Ba/F3-ERBB2-A775_G776insYVMA. Kind of assay: Ba/F3 cell survival assay, ERBB2 A775_G776insYVMA. The assay is classed as cell-based. To be noted: Mus musculus, BaF3, 48 h, read-out: BA/F3 (ERBB2 A775_G776 insYVMA) IC50. Here is the method:
as §1, §2, §3, §4, §5

[10] abbreviates: read-out: BA/F3 (wild type) IC50, cell viability, Cell Titer-Glo, 48 h, with 10 ng/mL EGF, without IL-3.

Structures are written as SMILES. Read-outs that look alike come from different tables or passages of the source.

Sequence of human Bub1 (O43683 704-1085): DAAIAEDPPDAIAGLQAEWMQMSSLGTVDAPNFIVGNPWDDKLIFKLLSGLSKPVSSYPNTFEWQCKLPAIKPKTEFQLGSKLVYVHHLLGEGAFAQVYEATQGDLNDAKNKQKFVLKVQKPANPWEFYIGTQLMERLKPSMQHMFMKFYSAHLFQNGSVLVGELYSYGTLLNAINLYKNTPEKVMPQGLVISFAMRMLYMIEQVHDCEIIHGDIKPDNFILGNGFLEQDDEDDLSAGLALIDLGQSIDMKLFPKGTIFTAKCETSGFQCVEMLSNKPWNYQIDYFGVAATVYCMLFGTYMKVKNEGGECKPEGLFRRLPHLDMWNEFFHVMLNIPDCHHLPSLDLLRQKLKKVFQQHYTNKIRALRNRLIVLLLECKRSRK

For `COc1c(Cl)cccc1Nc1c(-c2ccncc2OCC2OCC2(C)C)[nH]c2c1C(=O)NCC2` (single isomer, unassigned; (+)) [Example 50, (+)-3-(3-chloro-2-methoxyanilino)-2-{3-[(3,3-dimethyloxetan-2-yl)methoxy]pyridin-4-yl}-1,5,6,7-tetrahydro-4H-pyrrolo[3,2-c]pyridin-4-one], the IC50 is more than 20000 nM in [1]; 349 nM in assay [2] (setting [10]); 16.4 nM in assay [3]; 7.64 nM in assay [4]; 45.4 nM in assay [5]; 0.519 nM in assay [6]. Moreover, the results for the IC50 in [7], in [8] and in assay [9] were 21.3 nM, 0.519 nM and 12.4 nM, respectively.
In the case of `COc1c(Cl)cccc1Nc1c(-c2ccncc2OC[C@@H]2CCO2)[nH]c2c1C(=O)NCC2` [Example 2, 3-(3-chlor-2-methoxyanilino)-2-{3-[(2S)-oxetan-2-ylmethoxy]pyridin-4-yl}-1,5,6,7-tetrahydro-4H-pyrrolo[3,2-c]pyridin-4-on], the IC50 in [1] is more than 20000 nM; in [2] (Mus musculus, BaF3, 48 h, read-out: BA/F3 (wild type) IC50, cell viability, Cell Titer-Glo, 48 h, with 10 ng/mL EGF, without IL-3), 282 nM; in assay [3], 9.73 nM; in assay [4] it was 5.59 nM; in assay [5], 30.1 nM; in assay [6] it was 0.328 nM. The IC50 was 16.8 nM in [7], 0.328 nM in assay [8] and 11.4 nM in assay [9].
On to `COc1c(Cl)cccc1Nc1c(-c2ccncc2OCC2(C)CCO2)[nH]c2c1C(=O)NCC2` (single isomer, unassigned; (+)) [Example 48, (+)-3-(3-chloro-2-methoxyanilino)-2-{3-[(2-methyloxetan-2-yl)methoxy]pyridin-4-yl}-1,5,6,7-tetrahydro-4H-pyrrolo[3,2-c]pyridin-4-one], for which the IC50 in [1] is 10300 nM; in assay [2] (setting [10]) it was 350 nM; in assay [3], 11.4 nM; in assay [4] it was 5.13 nM; in [5], 38.3 nM; in [6], 0.34 nM. In addition, the IC50 in [7] turned out to be 14.9 nM; in assay [8] it was 0.34 nM; in assay [9], 12.9 nM.
`COc1c(Cl)cccc1Nc1c(-c2ccncc2OCCC2CCO2)[nH]c2c1C(=O)NCC2` (single isomer, unassigned; (-)) [Example 26, (−)-3-(3-chloro-2-methoxyanilino)-2-{3-[2-(oxetan-2-yl)ethoxy]pyridin-4-yl}-1,5,6,7-tetrahydro-4H-pyrrolo[3,2-c]pyridin-4-one]: the IC50 is 1540 nM in [1]; 204 nM in assay [2] (setting [10]); 9.36 nM in [3]; 3.7 nM in [4]; 29.6 nM in [5]; 0.27 nM in assay [6]. The IC50 is 6.51 nM in assay [7], 0.27 nM in assay [8] and 8.39 nM in assay [9].

For the origin of these results see patent US20240307362A1 (priority 2019, published 2024).
